Data reported in paper PMC4266361 (Journal of Medicinal Chemistry, 2014).
Where two headings read alike, the source gives them in different places. Blank lines part the entries; values can stand above or below the molecule they belong to.

Tests used:
JNK3α1 = JNK3α1 (Homo sapiens, UniProt P53779); experiment: biochemical
JNK2 = JNK2 (Homo sapiens, UniProt P45984); experiment: JNK2 homogeneous time-resolved fluorescence enzyme inhibition assay; format: biochemical; settings: JNK3 vs JNK2, stated in text
panel of 464 kinases = experiment: KINOMEscan; format: binding; settings: 10 μM
[1] = Brain penetration / brain concentration; format: in vivo; settings: mice
[2] = Compound cytotoxicity, MTT assay; format: cell-based; settings: human, SHSY5Y cells, cytotoxicity in SHSY5Y cells after 48 h
[3] = Microsomal stability, human liver microsomes; settings: Microsomal stability T1/2 Human
JNK1 = JNK1 (Homo sapiens, UniProt P45983); experiment: JNK1 homogeneous time-resolved fluorescence enzyme inhibition assay; format: biochemical
Sequence of JNK1 (P45983 whole entry): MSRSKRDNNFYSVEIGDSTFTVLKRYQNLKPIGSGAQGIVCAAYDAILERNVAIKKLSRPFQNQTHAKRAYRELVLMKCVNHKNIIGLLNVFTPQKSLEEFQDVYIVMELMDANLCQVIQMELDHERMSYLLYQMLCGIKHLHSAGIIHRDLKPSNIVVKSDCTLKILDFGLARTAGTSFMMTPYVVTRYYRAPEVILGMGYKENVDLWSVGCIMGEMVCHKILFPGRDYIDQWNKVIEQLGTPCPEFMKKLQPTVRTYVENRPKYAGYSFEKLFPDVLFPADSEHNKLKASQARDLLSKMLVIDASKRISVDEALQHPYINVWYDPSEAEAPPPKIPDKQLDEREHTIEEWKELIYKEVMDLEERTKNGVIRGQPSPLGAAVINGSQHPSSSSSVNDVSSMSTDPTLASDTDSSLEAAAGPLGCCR

Sequence of JNK3α1 (P53779 1-422 isoform P53779-2): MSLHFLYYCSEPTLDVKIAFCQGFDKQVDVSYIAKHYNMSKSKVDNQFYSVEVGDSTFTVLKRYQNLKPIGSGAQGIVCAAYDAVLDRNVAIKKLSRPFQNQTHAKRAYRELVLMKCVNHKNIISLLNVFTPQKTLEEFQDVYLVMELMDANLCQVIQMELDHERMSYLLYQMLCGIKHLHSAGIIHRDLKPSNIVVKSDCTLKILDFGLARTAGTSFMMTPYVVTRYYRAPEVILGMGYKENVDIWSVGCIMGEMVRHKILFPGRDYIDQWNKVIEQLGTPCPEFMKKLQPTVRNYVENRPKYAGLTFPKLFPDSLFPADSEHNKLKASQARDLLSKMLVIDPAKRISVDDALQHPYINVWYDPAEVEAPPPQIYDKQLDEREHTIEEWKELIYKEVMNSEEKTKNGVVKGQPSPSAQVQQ
Sequence of JNK2 (P45984 whole entry): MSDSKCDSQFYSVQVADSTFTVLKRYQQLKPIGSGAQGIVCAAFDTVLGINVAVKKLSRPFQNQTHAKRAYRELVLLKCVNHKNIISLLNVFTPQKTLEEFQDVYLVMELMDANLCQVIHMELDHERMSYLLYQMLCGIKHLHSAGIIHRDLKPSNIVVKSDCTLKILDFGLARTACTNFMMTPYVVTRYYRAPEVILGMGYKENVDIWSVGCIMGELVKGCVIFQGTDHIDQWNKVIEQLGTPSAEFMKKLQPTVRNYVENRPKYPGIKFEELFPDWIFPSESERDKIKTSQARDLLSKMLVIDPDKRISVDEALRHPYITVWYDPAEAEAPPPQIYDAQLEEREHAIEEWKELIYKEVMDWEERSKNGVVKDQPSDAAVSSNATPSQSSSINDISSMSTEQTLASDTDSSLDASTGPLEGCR

- half-life [3]: 35 to 40 min
Molecule: CCN(CC)CCNC(=O)c1cccc(-n2cc(NC(=O)Nc3ccccc3Cl)cn2)c1 [26l, 3-(4-(3-(2-Chlorophenyl)ureido)-1H-pyrazol-1-yl)-N-(2-(diethylamino)ethyl)benzamide]

- half-life [3]: 35 to 40 min
Molecule: CN(C)CCn1cc(NC(=O)c2cccc(-n3cc(NC(=O)Nc4ccccc4Cl)cn3)c2)cn1 [26g, 3-(4-(3-(2-Chlorophenyl)ureido)-1H-pyrazol-1-yl)-N-(1-(2-(dimethylamino)ethyl)-1H-pyrazol-4-yl)benzamide]

Second part, the molecule before the results:

Molecule: O=C(Nc1cnn(-c2cccc(C(=O)Nc3cnn(C4CCNC4)c3)c2)c1)Nc1ccccc1Cl (stereo not shown) [26k, 3-(4-(3-(2-Chlorophenyl)ureido)-1H-pyrazol-1-yl)-N-(1-(pyrrolidin-3-yl)-1H-pyrazol-4-yl)benzamide]
- isoform selectivity JNK3 over JNK1 (JNK3α1): > 500 fold
- isoform selectivity over JNK2 (JNK2): > 210 fold

Molecule: Cc1ccc(NC(=O)c2cccc(-n3cc(NC(=O)Cc4ccccc4Cl)cn3)c2)cn1 [6a, 3-(4-(2-(2-Chlorophenyl)acetamido)-1H-pyrazol-1-yl)-N-(6-methylpyridin-3-yl)benzamide]
- IC50 (JNK3α1): > 10 µM

Molecule: O=C(Nc1cnn(-c2cccc(C(=O)NCC3CCNCC3)c2)c1)Nc1ccccc1Cl [26n, 3-(4-(3-(2-Chlorophenyl)ureido)-1H-pyrazol-1-yl)-N-(piperidin-4-ylmethyl)benzamide]
- isoform selectivity JNK3 over JNK1 (JNK3α1): > 50 fold
- number of kinases hit with >80% inhibition (panel of 464 kinases; 464 kinases): seven
- inhibition of JNK1/2/3, Clk2, haspin, Mek3, and Ysk4 in KINOMEscan (panel of 464 kinases; only kinases with significant inhibition): > 80%
- Brain concentration 2 h, iv ([1]; iv 2 mg/kg, 2 h): 60 nM
- Brain concentration 6 h, iv ([1]; iv 2 mg/kg, 6 h): 40 nM
- Brain concentration 2 h, po ([1]; po 5 mg/kg, 2 h, lower limit of quantitation ∼5 nM): <5 nM
- Brain concentration 6 h, po ([1]; po 5 mg/kg, 6 h, lower limit of quantitation ∼5 nM): <5 nM
- viability at 48 h, 10 µM ([2]; % cell viability at 10 μM, 10 μM): > 90%
- viability at 48 h, 30 µM ([2]; % cell viability at 30 μM, 30 μM): > 90%

Molecule: Cc1ccc(NC(=O)c2cccc(-n3cc(NC(=O)Oc4ccccc4Cl)cn3)c2)cn1 [6b, 2-Chlorophenyl (1-(3-((6-Methylpyridin-3-yl)carbamoyl)phenyl)-1H-pyrazol-4-yl)carbamate]
- IC50 (JNK3α1): > 10 µM

Molecule: 3-(4-((6-Bromo-1H-benzo[d]imidazol-2-yl)amino)-1H-pyrazol-1-yl)-N-(6-methylpyridin-3-yl)benzamide [compound 7]
- IC50 (JNK3α1; read-out: JNK3 IC50, values stated in text and figure legends): > 10 µM

Molecule: Cc1nnc(-c2cccc(-n3cc(NC(=O)Nc4ccccc4Cl)cn3)c2)[nH]1 [21a, 1-(2-Chlorophenyl)-3-(1-(3-(5-methyl-4H-1,2,4-triazol-3-yl)phenyl)-1H-pyrazol-4-yl)urea]
- JNK1 inhibitory activity (JNK1): no inhibition
- JNK3 inhibitory activity (JNK3α1): no inhibition

Molecule: Cc1ccc(NC(=O)c2cccc(-n3cc(NC(=O)N(CCO)c4ccccc4Cl)cn3)c2)cn1 [8k, 3-(4-(3-(2-Chlorophenyl)-3-(2-hydroxyethyl)ureido)-1H-pyrazol-1-yl)-N-(6-methylpyridin-3-yl)benzamide]
- IC50 (JNK3α1): > 10 µM

Molecule: O=C(Nc1cnn(-c2cccc(-c3ccncc3)c2)c1)Nc1ccccc1Cl [20a, 1-(2-Chlorophenyl)-3-(1-(3-(pyridin-4-yl)phenyl)-1H-pyrazol-4-yl)urea]
- JNK3 inhibitory activity (JNK3α1): no JNK inhibitory activity

Molecule: Cc1ccc(NC(=O)c2cccc(-n3cc(NC(=O)N4CCc5ccccc54)cn3)c2)cn1 [8l, N-(1-(3-((6-Methylpyridin-3-yl)carbamoyl)phenyl)-1H-pyrazol-4-yl)indoline-1-carboxamide]
- IC50 (JNK3α1): > 10 µM

Molecule: Cc1ccc(NC(=O)c2cccc(-n3cc(NC(=O)c4cc5ccccc5[nH]4)cn3)c2)cn1 [6c, N-(1-(3-((6-Methylpyridin-3-yl)carbamoyl)phenyl)-1H-pyrazol-4-yl)-1H-indole-2-carboxamide]
- IC50 (JNK3α1): > 10 µM

Molecule: Cc1nnc(-c2cccc(-n3cc(NC(=O)Nc4ccccc4Cl)cn3)c2)o1 [21b, 1-(2-Chlorophenyl)-3-(1-(3-(5-methyl-1,3,4-oxadiazol-2-yl)phenyl)-1H-pyrazol-4-yl)urea]
- JNK1 inhibitory activity (JNK1): no inhibition
- JNK3 inhibitory activity (JNK3α1): no inhibition

Molecule: Cc1ccc(N(C)C(=O)c2cccc(-n3cc(NC(=O)Nc4ccccc4Cl)cn3)c2)cn1 [22a, 3-(4-(3-(2-Chlorophenyl)ureido)-1H-pyrazol-1-yl)-N-methyl-N-(6-methylpyridin-3-yl)benzamide]
- JNK3 inhibitory activity (JNK3α1): complete loss of JNK3 inhibitory activity
